Reference: PubChem BioAssay (NCI)
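Step 1: Grow cells in 96-well plates. Step 2: Expose to compound for 48 hours at 5 concentrations. Step 3: Interpolate endpoints linearly; if unreached, use highest concentration. At the GI50, growth is halved. At the TGI there is no net growth.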

How the values were obtained:
Test in all cases: NCI tumour cell line growth inhibition, 48 h
RXF 393 renal = test system: RXF 393 renal
MALME-3M melanoma = test system: MALME-3M melanoma
A549 NSCLC = test system: A549 NSCLC
HOP-92 NSCLC = test system: HOP-92 NSCLC
CAKI-1 renal = test system: CAKI-1 renal
TK-10 renal = test system: TK-10 renal
HL-60(TB) leukemia = test system: HL-60(TB) leukemia
SR leukemia = test system: SR leukemia
RPMI-8226 leukemia = test system: RPMI-8226 leukemia
SF-295 CNS = test system: SF-295 CNS
LOX IMVI melanoma = test system: LOX IMVI melanoma
HCT-15 colon = test system: HCT-15 colon
SF-539 CNS = test system: SF-539 CNS
HT29 colon = test system: HT29 colon
M14 melanoma = test system: M14 melanoma
MDA-MB-231 breast = test system: MDA-MB-231 breast
SW-620 colon = test system: SW-620 colon
HCT-116 colon = test system: HCT-116 colon
KM12 colon = test system: KM12 colon
NCI-H226 lung = test system: NCI-H226 lung
DU-145 prostate = test system: DU-145 prostate
OVCAR-8 ovarian = test system: OVCAR-8 ovarian
IGROV1 ovarian = test system: IGROV1 ovarian
MOLT-4 leukemia = test system: MOLT-4 leukemia
BT-549 breast = test system: BT-549 breast
T-47D breast = test system: T-47D breast
SK-MEL-28 melanoma = test system: SK-MEL-28 melanoma
HOP-62 NSCLC = test system: HOP-62 NSCLC
OVCAR-3 ovarian = test system: OVCAR-3 ovarian
SK-OV-3 ovarian = test system: SK-OV-3 ovarian
UACC-257 melanoma = test system: UACC-257 melanoma
NCI-H460 lung = test system: NCI-H460 lung
ACHN renal = test system: ACHN renal
UO-31 renal = test system: UO-31 renal
SK-MEL-5 melanoma = test system: SK-MEL-5 melanoma
SNB-19 CNS = test system: SNB-19 CNS
CCRF-CEM leukemia = test system: CCRF-CEM leukemia
K-562 leukemia = test system: K-562 leukemia
PC-3 prostate = test system: PC-3 prostate
UACC-62 melanoma = test system: UACC-62 melanoma
MCF7 breast = test system: MCF7 breast
786-0 renal = test system: 786-0 renal
MDA-MB-435 = test system: MDA-MB-435
COLO 205 colon = test system: COLO 205 colon
SK-MEL-2 melanoma = test system: SK-MEL-2 melanoma
HCC-2998 colon = test system: HCC-2998 colon
SN12C renal = test system: SN12C renal
U251 CNS = test system: U251 CNS
OVCAR-4 ovarian = test system: OVCAR-4 ovarian
HS 578T breast = test system: HS 578T breast
SF-268 CNS = test system: SF-268 CNS
SNB-75 CNS = test system: SNB-75 CNS
OVCAR-5 ovarian = test system: OVCAR-5 ovarian
A498 renal = test system: A498 renal
NCI-H23 lung = test system: NCI-H23 lung
NCI/ADR-RES ovarian = test system: NCI/ADR-RES ovarian
NCI-H522 lung = test system: NCI-H522 lung

## CN1C(=O)C(c2c[nH]c3ccccc23)=C(c2c[nH]c3ccccc23)C1=O
RXF 393 renal
  GI50: 4.41 µM
  TGI: 12.8 µM
MALME-3M melanoma
  GI50: 7.44 µM
  TGI: > 20.8 µM
A549 NSCLC
  GI50: 7.08 µM
  TGI: > 25 µM
HOP-92 NSCLC
  GI50: 3.08 µM
  TGI: 13.3 µM
CAKI-1 renal
  GI50: 3.92 µM
  TGI: 12.1 µM
TK-10 renal
  GI50: 12.5 µM
  TGI: > 25 µM
HL-60(TB) leukemia
  GI50: 6.37 µM
  TGI: 18.1 µM
SR leukemia
  GI50: 7.14 µM
  TGI: > 25 µM
RPMI-8226 leukemia
  GI50: 6.84 µM
  TGI: 25 µM
SF-295 CNS
  GI50: 4.48 µM
  TGI: 11.8 µM
LOX IMVI melanoma
  GI50: 3.73 µM
  TGI: 9.3 µM
HCT-15 colon
  GI50: 5.77 µM
  TGI: > 25 µM
SF-539 CNS
  GI50: 6.87 µM
  TGI: > 25 µM
HT29 colon
  GI50: 8.47 µM
  TGI: > 25 µM
M14 melanoma
  GI50: 5.96 µM
  TGI: 17.2 µM
MDA-MB-231 breast
  GI50: 4.22 µM
  TGI: 15.8 µM
SW-620 colon
  GI50: 5.78 µM
  TGI: > 25 µM
HCT-116 colon
  GI50: 6.75 µM
  TGI: > 25 µM
KM12 colon
  GI50: 5.66 µM
  TGI: > 21.3 µM
NCI-H226 lung
  GI50: 5.96 µM
  TGI: > 19.4 µM
DU-145 prostate
  GI50: 9.38 µM
  TGI: > 25 µM
OVCAR-8 ovarian
  GI50: 7.67 µM
  TGI: > 25 µM
IGROV1 ovarian
  GI50: 5.47 µM
  TGI: > 22.8 µM
MOLT-4 leukemia
  GI50: 7.83 µM
  TGI: > 25 µM
BT-549 breast
  GI50: 8.14 µM
  TGI: 24.7 µM
T-47D breast
  GI50: 6.57 µM
  TGI: > 25 µM
SK-MEL-28 melanoma
  GI50: 7.84 µM
  TGI: > 25 µM
HOP-62 NSCLC
  GI50: 6.68 µM
  TGI: > 25 µM
OVCAR-3 ovarian
  GI50: 7.03 µM
  TGI: > 25 µM
SK-OV-3 ovarian
  GI50: 12 µM
  TGI: > 25 µM
UACC-257 melanoma
  GI50: 7.65 µM
  TGI: 24.8 µM
NCI-H460 lung
  GI50: 5.52 µM
  TGI: 15 µM
ACHN renal
  GI50: 6 µM
  TGI: > 25 µM
UO-31 renal
  GI50: 2.64 µM
  TGI: > 20.6 µM
SK-MEL-5 melanoma
  GI50: 4.5 µM
  TGI: 10.9 µM
SNB-19 CNS
  GI50: 9.77 µM
  TGI: > 25 µM
CCRF-CEM leukemia
  GI50: 7.84 µM
  TGI: > 25 µM
K-562 leukemia
  GI50: 7.77 µM
  TGI: > 25 µM
PC-3 prostate
  GI50: 4.46 µM
  TGI: > 25 µM
UACC-62 melanoma
  GI50: 3.07 µM
  TGI: 17.3 µM
MCF7 breast
  GI50: 5.24 µM
  TGI: > 24.1 µM
786-0 renal
  GI50: 9.85 µM
  TGI: > 25 µM
MDA-MB-435
  GI50: 5.49 µM
  TGI: 16.2 µM
COLO 205 colon
  GI50: 4.77 µM
  TGI: 12.4 µM
SK-MEL-2 melanoma
  GI50: 5.26 µM
  TGI: 13.4 µM
HCC-2998 colon
  GI50: 5.46 µM
  TGI: 13.1 µM
SN12C renal
  GI50: 7.75 µM
  TGI: > 25 µM
U251 CNS
  GI50: 7.03 µM
  TGI: > 25 µM
OVCAR-4 ovarian
  GI50: 7.58 µM
  TGI: > 25 µM
HS 578T breast
  GI50: 5.18 µM
  TGI: 21.3 µM
SF-268 CNS
  GI50: 7.27 µM
  TGI: > 25 µM
SNB-75 CNS
  GI50: 4.26 µM
  TGI: > 25 µM
OVCAR-5 ovarian
  GI50: 9.88 µM
  TGI: > 25 µM
A498 renal
  GI50: 3.55 µM
  TGI: 17.2 µM
NCI-H23 lung
  GI50: 6.61 µM
  TGI: > 25 µM
NCI/ADR-RES ovarian
  GI50: 6.66 µM
  TGI: > 25 µM
NCI-H522 lung
  GI50: 4.69 µM
  TGI: 12.5 µM
